Laboratory results as given in article PMC12669672, “Structural insights into selective and dual antagonism of EP2 and EP4 prostaglandin receptors” (The EMBO Journal, 2025).
Several values for one entry are separate records, joined by “and”; a condition that tells them apart may be missing. Equal entries are not always repeated. Entries after “also recorded” stand apart in the source; their conditions may differ. Where two headings read alike, the source gives them in different places.

Legend:
Assay type in all cases: cell-based
[1] = target: T1, EP4 WT (Homo sapiens, UniProt P35408); test: GloSensor cAMP assay, antagonism of PGE2-induced cAMP; details: 1 h, single experiments 1st-3rd, Fig. S1A
T1 construct: The full-length EP2 or EP4 was cloned into the pcDNA3.1 vector; FLAG (N); expressed in transfected cells; host or cells: AD293 cells
T1 sequence (P35408 whole entry): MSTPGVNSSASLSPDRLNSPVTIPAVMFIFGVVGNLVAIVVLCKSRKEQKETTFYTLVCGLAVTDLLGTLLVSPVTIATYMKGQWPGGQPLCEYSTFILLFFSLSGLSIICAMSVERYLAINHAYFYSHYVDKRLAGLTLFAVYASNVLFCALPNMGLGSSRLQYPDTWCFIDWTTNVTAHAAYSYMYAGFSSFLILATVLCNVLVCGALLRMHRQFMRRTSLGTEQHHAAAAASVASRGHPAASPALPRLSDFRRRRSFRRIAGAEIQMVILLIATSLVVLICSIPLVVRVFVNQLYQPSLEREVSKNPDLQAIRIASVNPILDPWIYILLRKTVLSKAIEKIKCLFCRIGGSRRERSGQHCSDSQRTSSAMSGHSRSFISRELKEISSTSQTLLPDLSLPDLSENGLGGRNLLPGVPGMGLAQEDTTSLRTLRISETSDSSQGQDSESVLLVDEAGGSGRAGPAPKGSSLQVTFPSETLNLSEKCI
Method: (§1) The full-length EP2 or EP4 was cloned into the pcDNA3.1 vector (Invitrogen), incorporating an N-terminal FLAG tag. AD293 cells were seeded in six-well plates containing DMEM supplemented with 10% dialyzed FBS 1 day prior to transfection. Following overnight growth, cells were transfected with a 1:1 ratio of receptor construct and GloSensor22F cAMP biosensor (Promega) plasmids.
(§2) Twenty-four hours post-transfection, the cells were transferred to CO2-independent media containing 2% GloSensor cAMP Reagent (Promega) and distributed into 384-well assay plates at a density of 4000 cells per well in 10 μL. […] The plates were then incubated at 37 °C for an additional hour before luminescence measurements were taken using an EnVision plate reader.
(§3) Data analysis was performed using GraphPad Prism software v8.0.1. A nonlinear regression analysis, employing a sigmoidal dose–response model, was conducted to determine the Emax values and half-maximum inhibitory concentrations (IC50) for each compound tested.

[2] = target: T2, constitutively active EP2 M116A (Homo sapiens, UniProt P43116, M116A); test: GloSensor cAMP assay, inhibition of constitutive activity
T2 construct: The full-length EP2 or EP4 was cloned into the pcDNA3.1 vector; FLAG (N); expressed in transfected cells; host or cells: AD293 cells
T2 sequence (P43116 whole entry M116A): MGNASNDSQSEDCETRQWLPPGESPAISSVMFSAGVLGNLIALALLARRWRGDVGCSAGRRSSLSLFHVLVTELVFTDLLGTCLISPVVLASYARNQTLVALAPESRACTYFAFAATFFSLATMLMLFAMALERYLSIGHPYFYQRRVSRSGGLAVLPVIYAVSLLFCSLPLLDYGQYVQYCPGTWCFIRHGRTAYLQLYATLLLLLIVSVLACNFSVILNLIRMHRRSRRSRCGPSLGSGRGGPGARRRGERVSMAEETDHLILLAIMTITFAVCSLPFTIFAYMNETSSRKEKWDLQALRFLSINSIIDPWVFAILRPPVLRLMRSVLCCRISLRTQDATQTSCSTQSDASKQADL
Method: as §1, §2, §3

[3] = target: T3, constitutively active EP2 S305A (Homo sapiens, UniProt P43116, S305A); test: as above; details: for cAMP activity (∆pIC50 from EP2 WT): PF-04418948, S305A
T3 construct: The full-length EP2 or EP4 was cloned into the pcDNA3.1 vector; FLAG (N); expressed in transfected cells; host or cells: AD293 cells
T3 sequence (P43116 whole entry S305A): as the sequence (P43116 whole entry M116A) above, with A116M, S305A counted along it
Method: as §1, §2, §3

[4] = target: T4, constitutively active EP2 S308A (Homo sapiens, UniProt P43116, S308A); test: as above
T4 construct: The full-length EP2 or EP4 was cloned into the pcDNA3.1 vector; FLAG (N); expressed in transfected cells; host or cells: AD293 cells
T4 sequence (P43116 whole entry S308A): as the sequence (P43116 whole entry M116A) above, with A116M, S308A counted along it
Method: as §1, §2, §3

[5] = target: T5, constitutively active EP2 S86A (Homo sapiens, UniProt P43116, S86A); test: as above; details: for cAMP activity (∆pIC50 from EP2 WT): PF-04418948, S86A
T5 construct: The full-length EP2 or EP4 was cloned into the pcDNA3.1 vector; FLAG (N); expressed in transfected cells; host or cells: AD293 cells
T5 sequence (P43116 whole entry S86A): as the sequence (P43116 whole entry M116A) above, with S86A, A116M counted along it
Method: as §1, §2, §3

[6] = target: T6, constitutively active EP2 T82A (Homo sapiens, UniProt P43116, T82A); test: as above
T6 construct: The full-length EP2 or EP4 was cloned into the pcDNA3.1 vector; FLAG (N); expressed in transfected cells; host or cells: AD293 cells
T6 sequence (P43116 whole entry T82A): as the sequence (P43116 whole entry M116A) above, with T82A, A116M counted along it
Method: as §1, §2, §3

[7] = target: T7, constitutively active EP2 WT (Homo sapiens, UniProt P43116); test: as above
T7 construct: The full-length EP2 or EP4 was cloned into the pcDNA3.1 vector; FLAG (N); expressed in transfected cells; host or cells: AD293 cells
T7 sequence (P43116 whole entry): as the sequence (P43116 whole entry M116A) above, with A116M counted along it
Method: as §1, §2, §3

[8] = target: EP2 WT (Homo sapiens, UniProt P43116); test: GloSensor cAMP assay, antagonism of PGE2-induced cAMP; parameters: The full-length EP2 or EP4 was cloned into the pcDNA3.1 vector; FLAG (N); expressed in transfected cells; host or cells: AD293 cells; details: for remaining activity at 0.1 µM / remaining activity at 0.01 µM / remaining activity at 0.001 µM / remaining activity at 0.0001 µM / remaining activity at 10 pM / remaining activity at 1 pM / remaining activity at 10 µM / remaining activity at 1 µM: 1 h; for remaining activity at 0.1 µM / remaining activity at 0.01 µM / remaining activity at 0.001 µM / remaining activity at 0.0001 µM / remaining activity at 10 pM / remaining activity at 1 pM / remaining activity at 10 µM / remaining activity at 1 µM / cAMP activity (∆pIC50 from EP2 WT): single experiments 1st-3rd
EP2 WT, sequence (P43116 whole entry): as the sequence (P43116 whole entry M116A) above, with A116M counted along it
Method: as §1, §2, §3

[9] = 1 h, PF-04418948 log([M]) -5.00, read-out: % cAMP activity (normalized to WT)
[10] = 1 h, PF-04418948 log([M]) -6.00, read-out: % cAMP activity (normalized to WT)
[11] = 1 h, PF-04418948 log([M]) -10.00, read-out: % cAMP activity (normalized to WT)
[12] = 1 h, PF-04418948 log([M]) -11.00, read-out: % cAMP activity (normalized to WT)
[13] = no PGE2, pIC50 mutant - pIC50 WT, mean
[14] = 1 h, PF-04418948 log([M]) -8.00, read-out: % cAMP activity (normalized to WT)
[15] = 1 h, PF-04418948 log([M]) -9.00, read-out: % cAMP activity (normalized to WT)
[16] = 1 h, PF-04418948 log([M]) -12.00, read-out: % cAMP activity (normalized to WT)

COc1ccc2cc(OCC3(C(=O)O)CN(C(=O)c4ccc(F)cc4)C3)ccc2c1 [PF-04418948]
remaining activity at 100 µM ([1]; read-out: % cAMP activity EP4 (normalized to Grapiprant), ligand log([M]) -4.00): 99.1%
remaining activity at […] ([1]; read-out: % cAMP activity EP4 (normalized to Grapiprant), ligand log([M]) -4.70): 107%
remaining activity at […] ([1]; read-out: % cAMP activity EP4 (normalized to Grapiprant), ligand log([M]) -5.40): 103%
remaining activity at […] ([1]; read-out: % cAMP activity EP4 (normalized to Grapiprant), ligand log([M]) -6.10): 106%
remaining activity at 0.03236 µM ([1]; read-out: % cAMP activity EP4 (normalized to Grapiprant), ligand log([M]) -7.49): 93.7%
remaining activity at 0.001288 µM ([1]; read-out: % cAMP activity EP4 (normalized to Grapiprant), ligand log([M]) -8.89): 94%
remaining activity at 10 µM [2, 9]: 5.6%
remaining activity at 1 µM [2, 10]: 38.1%
remaining activity at 0.0001 µM [2, 11]: 245%
remaining activity at 10 pM [2, 12]: 252%
cAMP activity (∆pIC50 from EP2 WT) ([2]; PF-04418948, M116A, Mean): -1.518
ΔpIC50 [2, 13]: -1.52 ± 0.12
cAMP activity (∆pIC50 from EP2 WT) ([3]; Mean): -1.012
cAMP activity (∆pIC50 from EP2 WT) ([3]; single experiments 1st-3rd): -1.044 and -1.010 and -0.982
ΔpIC50 [3, 13]: -1.01 ± 0.02
remaining activity at 0.01 µM [4, 14]: 45.3%
remaining activity at 0.001 µM [4, 15]: 80.9%
remaining activity at 0.0001 µM [4, 11]: 93%
remaining activity at 10 pM [4, 12]: 84.1%
remaining activity at 1 pM [4, 16]: 68.1%
cAMP activity (∆pIC50 from EP2 WT) ([4]; PF-04418948, S308A, Mean): -0.283
ΔpIC50 [4, 13]: -0.28 ± 0.10
remaining activity at 10 µM [5, 9]: 14.6%
remaining activity at 1 µM [5, 10]: 35.7%
cAMP activity (∆pIC50 from EP2 WT) ([5]; Mean): -0.316
cAMP activity (∆pIC50 from EP2 WT) ([5]; single experiments 1st-3rd): -0.355 and -0.329 and -0.263
remaining activity at 0.0001 µM [6, 11]: 302%
remaining activity at 1 pM [6, 16]: 299%
cAMP activity (∆pIC50 from EP2 WT) ([6]; PF-04418948, T82A, Mean): -0.369
ΔpIC50 [6, 13]: -0.37 ± 0.10
remaining activity at 0.1 µM ([7]; 1 h, PF-04418948 log([M]) -7.00, read-out: % cAMP activity (normalized to WT)): 10.6%
remaining activity at 0.01 µM [7, 14]: 44.6%
remaining activity at 0.001 µM [7, 15]: 89.9%
remaining activity at 0.0001 µM [7, 11]: 92.4%
remaining activity at 10 pM [7, 12]: 102%
remaining activity at 1 pM [7, 16]: 104%
cAMP activity (∆pIC50 from EP2 WT) ([7]; PF-04418948, WT, single experiments 1st-3rd): -0.051 and 0.118 and -0.068
remaining activity at 0.1 µM ([8]; PF-04418948 log([M]) -7, Fig. 3D, read-out: % cAMP activity (normalized to WT)): 5.55%
remaining activity at 0.01 µM ([8]; PF-04418948 log([M]) -8, Fig. 3D, read-out: % cAMP activity (normalized to WT)): 44.3%
remaining activity at 0.001 µM ([8]; PF-04418948 log([M]) -9, Fig. 3D, read-out: % cAMP activity (normalized to WT)): 82.7%
remaining activity at 0.0001 µM ([8]; PF-04418948 log([M]) -10, Fig. 3D, read-out: % cAMP activity (normalized to WT)): 105%
remaining activity at 10 pM ([8]; PF-04418948 log([M]) -11, Fig. 3D, read-out: % cAMP activity (normalized to WT)): 101%
remaining activity at 1 pM ([8]; PF-04418948 log([M]) -12, Fig. 3D, read-out: % cAMP activity (normalized to WT)): 104%
remaining activity at 10 µM ([8]; ligand log([M]) -5, Fig. S7B, read-out: % cAMP activity (normalized to WT)): 2.66%
remaining activity at 1 µM ([8]; ligand log([M]) -6, Fig. S7B, read-out: % cAMP activity (normalized to WT)): 2.72%
remaining activity at 0.1 µM ([8]; ligand log([M]) -7, Fig. S7B, read-out: % cAMP activity (normalized to WT)): 8.2%
remaining activity at 0.01 µM ([8]; ligand log([M]) -8, Fig. S7B, read-out: % cAMP activity (normalized to WT)): 63.2%
remaining activity at 0.001 µM ([8]; ligand log([M]) -9, Fig. S7B, read-out: % cAMP activity (normalized to WT)): 96.2%
remaining activity at 0.0001 µM ([8]; ligand log([M]) -10, Fig. S7B, read-out: % cAMP activity (normalized to WT)): 92.4%
remaining activity at 10 pM ([8]; ligand log([M]) -11, Fig. S7B, read-out: % cAMP activity (normalized to WT)): 103%
remaining activity at 1 pM ([8]; ligand log([M]) -12, Fig. S7B, read-out: % cAMP activity (normalized to WT)): 101%
remaining activity at 10 µM ([8]; read-out: % cAMP activity on EP2 (normalized to PF-04418948), ligand log([M]) -5, Fig. S1A): 2.66%
remaining activity at 1 µM ([8]; read-out: % cAMP activity on EP2 (normalized to PF-04418948), ligand log([M]) -6, Fig. S1A): 2.72%
remaining activity at 0.1 µM ([8]; read-out: % cAMP activity on EP2 (normalized to PF-04418948), ligand log([M]) -7, Fig. S1A): 8.2%
remaining activity at 0.01 µM ([8]; read-out: % cAMP activity on EP2 (normalized to PF-04418948), ligand log([M]) -8, Fig. S1A): 63.2%
remaining activity at 0.001 µM ([8]; read-out: % cAMP activity on EP2 (normalized to PF-04418948), ligand log([M]) -9, Fig. S1A): 96.2%
remaining activity at 0.0001 µM ([8]; read-out: % cAMP activity on EP2 (normalized to PF-04418948), ligand log([M]) -10, Fig. S1A): 92.4%
remaining activity at 10 pM ([8]; read-out: % cAMP activity on EP2 (normalized to PF-04418948), ligand log([M]) -11, Fig. S1A): 103%
remaining activity at 1 pM ([8]; read-out: % cAMP activity on EP2 (normalized to PF-04418948), ligand log([M]) -12, Fig. S1A): 101%
antagonism profile EP2 versus EP4 (in words) ([8]; cAMP accumulation assay upon PGE2 stimulation, Appendix Fig. S1A): selective antagonists of EP2; also recorded: highly selective for EP2 over EP4
cAMP activity (∆pIC50 from EP2 WT) ([8]; Appendix Fig. S7A): 0.0005 and 0.053 and -0.059
cAMP activity (∆pIC50 from EP2 WT) ([8]; Fig. 3E): 0.043 and 0.00333 and -0.047
